Assay results taken from patent US9408387B2, “Safening 6-amino-2-(substituted phenyl)-5-substituted-4-pyrimidinecarboxylate herbicide injury on cereal crops” (Dow AgroSciences LLC, priority 2009, dated 2016).

Experiments:
Type in all cases: in vivo
[1] = tested on: purple deadnettle (Lamium purpureum L; LAMPU); experiment: Postemergence herbicidal activity, greenhouse, visual injury: purple deadnettle; conditions: Lamium purpureum, post-emergence, 480 h, 20-22 d, read-out: LAMPU Ob (visual injury); for pest or weed control at 70 g/ha: herbicide alone 70 g/ha; for pest or weed control at 140 g/ha: herbicide alone 140 g/ha
Procedure: (§1) Evaluation of Postemergence Herbicidal Safening in Cereal Crops
(§2) Seeds of the desired test plant species were planted in Sun Gro MetroMix® 306 planting mixture, which typically has a pH of 6.0 to 6.8 and an organic matter content of about 30 percent, in plastic pots with a surface area of 103.2 square centimeters (cm^2). When required to ensure good germination and healthy plants, a fungicide treatment and/or other chemical or physical treatment was applied. The plants were grown for 7-36 days (d) in a greenhouse with an approximate 14-hour (h) photoperiod which was maintained at about 18° C. during the day and 17° C. during the night. Nutrients and water were added on a regular basis and supplemental lighting was provided with overhead metal halide 1000-Watt lamps as necessary. The plants were employed for testing when they reached the second or third true leaf stage.
(§3) Treatments consisted of the acids or esters of compounds 1-10 and cloquintocet-mexyl (CQC-M), fenchlorazole-ethyl, mefenpyr-diethyl alone and in combination. Weighed amounts of acid or methyl esters of the compounds of formula (I) were dissolved in a volume of 97:3 v/v acetone/dimethylsulfoxide (DMSO) to obtain concentrated solutions. […] The concentrated solutions of the test compound were diluted with the addition of an aqueous mixture containing acetone, water, isopropyl alcohol, DMSO, Agri-Dex crop oil concentrate, and Triton® X-77 surfactant in a 64.7:26.0:6.7:2.0:0.7:0.01 v/v ratio. Test compounds were diluted to the appropriate application rate with a dilution solution which was prepared by mixing the appropriate volume of 97:3 v/v acetone/DMSO and the appropriate volume of an aqueous mixture containing acetone, water, isopropyl alcohol, DMSO, Agri-Dex crop oil concentrate, and Triton® X-77 surfactant in a 64.7:26.0:6.7:2.0:0.7:0.01 v/v ratio. Compound requirements are based upon a 12 mL application volume at a rate of 187 liters per hectare (L/ha). The concentrated solutions of the safener were prepared following the same procedure. Weighed amounts of safener were dissolved in a volume of 97:3 v/v acetone/DMSO to obtain concentrated safener solutions.
(§4) Spray solutions of the herbicide safener and test compound mixtures were prepared by adding the concentrated solutions to the appropriate amount of dilution solution to form 12 mL spray solution with active ingredients in combinations.
(§5) Formulated compounds were applied to the plant material with an overhead Mandel track sprayer equipped with 8002E nozzles calibrated to deliver 187 L/ha over an application area of 0.503 square meters (m^2) at a spray height of 18 inches (43 centimeters (cm)) above average plant canopy. Control plants were sprayed in the same manner with the solvent blank.
(§6) The treated plants and control plants were placed in a greenhouse as described above and watered by sub-irrigation to prevent wash-off of the test compounds. After 20-22 d, the condition of the test plants as compared with that of the control plants was determined visually and scored on a scale of 0 to 100 percent where 0 corresponds to no injury and 100 corresponds to complete kill.
(§7) Colby's equation was used to determine the herbicidal effects expected from the mixtures (Colby, S. R. Calculation of the synergistic and antagonistic response of herbicide combinations. Weeds 1967, 15, 20-22.).
(§8) The following equation was used to calculate the expected activity of mixtures containing two active ingredients, A and B: Expected=A+B−(A×B/100)
(§9) A=observed efficacy of active ingredient A at the same concentration as used in the mixture.
(§10) B=observed efficacy of active ingredient B at the same concentration as used in the mixture.

[2] = tested on: winter barley (Hordeum vulgare L; HORVW); experiment: Postemergence herbicidal safening in cereal crops, greenhouse, visual injury: winter barley; conditions: 20-22 d
Procedure: as §1, §2, §3, §4, §5, §6, §7, §8, §9, §10

[3] = tested on: durum wheat (Triticum durum L; TRZDU); experiment: Postemergence herbicidal safening in cereal crops, greenhouse, visual injury: durum wheat; conditions: 20-22 d
Procedure: as §1, §2, §3, §4, §5, §6, §7, §8, §9, §10

[4] = tested on: spring wheat (Triticum aestivum L; TRZAS); experiment: Postemergence herbicidal safening in cereal crops, greenhouse, visual injury: spring wheat; conditions: Triticum aestivum, post-emergence, 480 h, 20-22 d, read-out: TRZAS Ob (visual injury); for pest or weed control at 70 g/ha: herbicide alone 70 g/ha; for pest or weed control at 140 g/ha: herbicide alone 140 g/ha; for pest or weed control at 35 g/ha: herbicide alone 35 g ae/ha
Procedure: as §1, §2, §3, §4, §5, §6, §7, §8, §9, §10

GALAP = experiment: Postemergence herbicidal activity, greenhouse, visual injury: GALAP; conditions: 20-22 d
Procedure: as §1, §2, §3, §4, §5, §6, §7
(§11) The following equation was used to calculate the expected activity of mixtures containing two active ingredients, A and B: Expected=A+B−(A×B/100) […]

[5] = tested on: winter wheat (Triticum aestivum L; TRZAW); experiment: Postemergence herbicidal safening in cereal crops, greenhouse, visual injury: winter wheat; conditions: 20-22 d
Procedure: as §1, §2, §3, §4, §5, §6, §7, §8, §9, §10

[6] = tested on: spring barley (Hordeum vulgare L; HORVS); experiment: Postemergence herbicidal safening in cereal crops, greenhouse, visual injury: spring barley; conditions: Hordeum vulgare, post-emergence, 480 h, 20-22 d, read-out: HORVS Ob (visual injury); for pest or weed control at 70 g/ha: herbicide alone 70 g/ha; for pest or weed control at 140 g/ha: herbicide alone 140 g/ha; for pest or weed control at 35 g/ha: herbicide alone 35 g ae/ha
Procedure: as §1, §2, §3, §4, §5, §6, §7, §8, §9, §10

AMARE = experiment: Postemergence herbicidal activity, greenhouse, visual injury: AMARE; conditions: 20-22 d
Procedure: as §1, §2, §3, §4, §5, §6, §7, §11

[7] = tested on: lamb's-quarters (Chenopodium album L; CHEAL); experiment: Postemergence herbicidal activity, greenhouse, visual injury: lamb's-quarters; conditions: herbicide alone 35 g ae/ha; 20-22 d
Procedure: as §1, §2, §3
Spray solutions of the herbicide safener and test compound mixtures were prepared by adding the concentrated solutions to the appropriate amount of dilution solution to form 12 mL spray solution with active ingredients in combinations. […]
as §6, with “kill. […]” for “kill.”

[8] = tested on: corn poppy (Papaver rhoeas L; PAPRH); experiment: Postemergence herbicidal activity, greenhouse, visual injury: corn poppy; conditions: 20-22 d
Procedure: as §1, §2, §3, §4, §5, §6, §7, §8, §9, §10

[9] = tested on: kochia (Kochia scoparia L; KCHSC); experiment: Postemergence herbicidal activity, greenhouse, visual injury: kochia; conditions: 20-22 d
Procedure: as §1, §2, §3, §4, §5, §6, §7, §8, §9, §10

COc1c(Cl)ccc(-c2nc(N)c(Cl)c(C(=O)O)n2)c1F [Compound 1, 6-amino-5-chloro-2-(4-chloro-2-fluoro-3-methoxyphenyl)pyrimidine-4-carboxylic acid]
pest or weed control at 70 g/ha [1]: 95%
pest or weed control at 140 g/ha [1]: 99%
HORVW Ob (visual injury) ([2]; herbicide alone 70 g/ha): 15%
HORVW Ob (visual injury) ([2]; herbicide alone 140 g/ha): 40%
TRZDU Ob (visual injury) ([3]; herbicide alone 70 g/ha): 15%
TRZDU Ob (visual injury) ([3]; herbicide alone 140 g/ha): 35%
pest or weed control at 70 g/ha [4]: 25%
pest or weed control at 140 g/ha [4]: 45%
GALAP Ob (visual injury) (GALAP; herbicide alone 70 g/ha): 95%
GALAP Ob (visual injury) (GALAP; herbicide alone 140 g/ha): 95%
TRZAW Ob (visual injury) ([5]; herbicide alone 70 g/ha): 35%
TRZAW Ob (visual injury) ([5]; herbicide alone 140 g/ha): 40%
pest or weed control at 70 g/ha [6]: 15%
pest or weed control at 140 g/ha [6]: 30%
AMARE Ob (visual injury) (AMARE; herbicide alone 70 g/ha): 100%
AMARE Ob (visual injury) (AMARE; herbicide alone 140 g/ha): 100%

COc1c(N)nc(-c2ccc(C(F)(F)F)cc2)nc1C(=O)O [Compound 3, 6-amino-2-(4-trifluoromethylphenyl)-5-methoxypyrimidine-4-carboxylic acid]
HORVW Ob (visual injury) ([2]; herbicide alone 8.75 g/ha): 8%
TRZDU Ob (visual injury) ([3]; herbicide alone 8.75 g/ha): 7%
pest or weed control at 8.75 g/ha ([4]; herbicide alone 8.75 g/ha): 15%
pest or weed control at 35 g/ha [4]: 75%
CHEAL Ob (visual injury) [7]: 10%
TRZAW Ob (visual injury) ([5]; herbicide alone 8.75 g/ha): 17%
pest or weed control at 8.75 g/ha ([6]; herbicide alone 8.75 g/ha): 13%
pest or weed control at 35 g/ha [6]: 50%

COc1c(N)nc(-c2ccc(C)cc2)nc1C(=O)O [Compound 6, 6-amino-2-p-tolyl-5-methoxypyrimidine-4-carboxylic acid]
pest or weed control at 70 g/ha [1]: 75%
pest or weed control at 140 g/ha [1]: 80%
PAPRH Ob (visual injury) ([8]; herbicide alone 70 g/ha): 97%
PAPRH Ob (visual injury) ([8]; herbicide alone 140 g/ha): 100%
KCHSC Ob (visual injury) ([9]; herbicide alone 70 g/ha): 60%
KCHSC Ob (visual injury) ([9]; herbicide alone 140 g/ha): 70%
pest or weed control at 35 g/ha [4]: 35%
pest or weed control at 70 g/ha [4]: 20%
pest or weed control at 140 g/ha [4]: 55%
CHEAL Ob (visual injury) [7]: 83%
pest or weed control at 35 g/ha [6]: 25%
pest or weed control at 70 g/ha [6]: 20%
pest or weed control at 140 g/ha [6]: 40%
